Data on seven molecules can be found in US4510323A, “Cis-bicyclo[3.3.0]octane derivatives, medicaments containing them and processes for their preparation and use” (Gruenenthal GmbH, priority 1981, dated 1985).

Assay [1] concerns platelet aggregation induced by arachidonic acid. The settings on record: in vitro, Whittle et al., page 611; cited from earlier work.
Assay [2] has as its system narcotized rats. Briefly: Persistence of blood pressure lowering activity after supramaximal hypotensive dose in narcotized rats. Format: in vivo, rat. As to conditions: for half time of b.p.l.a. (blood pressure lowering activity) / rate of decay of blood pressure lowering activity: 1 mg/kg intravenous, narcotized rats (pentobarbital). The protocol:
On intravenous administration of a supra-
maximal hypotensive dose (1 mg/kg) of the test com-
pounds in narcotized rats (pentobarbital narcosis) the
following persistence characteristics of the blood
pressure lowering activity ("b.p.l.a.") were observed: […]

In another assay the test system is human thrombocytes. Description: Inhibition of arachidonic acid induced aggregation of human thrombocytes. Format: cell-based. The settings on record: for IC50: arachidonic acid induced aggregation of human thrombocytes; for relative activity: in comparison to prostacyclin = 1.0. From the text: The aggregation of human thrombocytes induced by arachidonic acid may be prevented e.g. by prostacyclin.

In assay [3] the test system is narcotized rats. As to conditions: stated as known; cited from earlier work.
Assay [4] deals with narcotized rats. Briefly: Blood pressure lowering activity in narcotized rats (pentobarbital narcosis). Format: in vivo, rat. As to conditions: intravenous; for ED (20 mm Hg): Rattus norvegicus, pentobarbital narcosis, read-out: ED20 (dose causing a drop of the diastolic blood pressure by 20 mm Hg); for relative activity: blood pressure lowering, prostacyclin = 1.0. An excerpt: Blood pressure lowering activity in nar-
cotized rats (pentobarbital narcosis; intravenous

The target of assay [5] is T1, adenylate cyclase in horse thrombocytes (Equus caballus, UniProt F7CK38).
T1 construct: Gs-coupled adenylate cyclase stimulation, cAMP formation from ATP as read-out
T1 sequence (F7CK38 1-384): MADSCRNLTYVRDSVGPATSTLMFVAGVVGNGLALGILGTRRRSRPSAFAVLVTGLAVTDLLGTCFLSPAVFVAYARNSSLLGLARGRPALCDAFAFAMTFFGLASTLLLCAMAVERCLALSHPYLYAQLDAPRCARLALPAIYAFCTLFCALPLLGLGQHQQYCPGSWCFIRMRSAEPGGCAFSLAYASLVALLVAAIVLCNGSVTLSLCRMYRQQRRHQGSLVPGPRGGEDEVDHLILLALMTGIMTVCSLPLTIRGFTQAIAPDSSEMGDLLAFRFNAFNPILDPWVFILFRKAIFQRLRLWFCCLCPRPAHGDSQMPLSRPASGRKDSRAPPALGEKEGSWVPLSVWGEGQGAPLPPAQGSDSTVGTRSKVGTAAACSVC
Briefly: Stimulation of adenylate cyclase (c-AMP formation from ATP) in horse thrombocytes. The assay is classed as biochemical. An excerpt: The enzyme adenylate cyclase catalyzes the formation of adenosine 3',5'-cyclic monophosphate (c-AMP) from adenosine triphosphate (ATP).
*Dose causing a threefold stimulation of the cAMP formation from ATP.

In assay [6] the test system is narcotized rats. Description: ADP induced fall in platelet count in-vivo in narcotized rats, intravenous administration. More on the design: species or system rat. As to conditions: urethane narcosis, 5,6-dihydroprostacyclin = 1.0.
In assay [7] the test system is conscious, spontaneous hypertensive rats. Briefly: Blood pressure lowering activity in conscious, spontaneous hypertensive rats. The assay is classed as in vivo, rat. As to conditions: intravenous; for ED (20 mm Hg): Rattus norvegicus, read-out: ED20 (dose causing a drop of the diastolic blood pressure by 20 mm Hg); for relative activity: blood pressure lowering, conscious SHR, 5,6-dihydroprostacyclin = 1.0. From the text:
Blood pressure lowering activity in conscious,
spontaneous hypertensive rats (measurement via in-
dwelling catheter, intravenous administration of the […]

Assay [8] relates to narcotized rats. Briefly: Thrombocyte aggregation inhibition after oral administration (ADP induced fall in thrombocyte count in-vivo) in narcotized rats. Details: species or system rat. The settings on record: for % inhibition of platelet aggregation: narcotized rats (urethane). The protocol: In this experiment the product obtained in Example 2 was administered orally in a dose of 4.64 mg/kg of narcotized rats (urethane narcosis). The thrombocyte aggregation inhibiting activity was determined at 30, 60 and 150 minutes after administration of the compound (Method: ADP induced fall in thrombocyte count in-vivo, determined by a "Technicon Autocounter").

The mark [9] stands for this setting: conscious spontaneous hypertensive rats, indwelling catheter.

Regarding `CCCCC[C@H](O)/C=C/[C@@H]1[C@H]2C/C(=C/CCCC(=O)O)C[C@H]2C[C@H]1O` [carbacyclin], the “activity relative to prostacyclin as inhibitor of platelet aggregation” value in [1] was 0.02 times.

With `CCCCC[C@H](O)/C=C/[C@@H]1[C@H]2C/C(=C/CCCC(=O)O)O[C@H]2C[C@H]1O` [Prostacyclin, reference compound], in the assay with narcotized rats [2], the “half time of b.p.l.a. (blood pressure lowering activity)” value turned out to be 5.89 min and the “rate of decay of blood pressure lowering activity” value came out at 11 % per min. In the assay with human thrombocytes, half-maximal inhibition (IC50) was put at 7.8 nM. Besides, in the assay on narcotized rats [3], the “effectiveness on oral administration” value is “ineffective”. In addition, in the assay on narcotized rats [4], the ED (20 mm Hg) stood at 0.16 mg/kg and the relative activity is on record as 1.0.

Regarding `O=C(O)c1cccc(C=C2C[C@H]3C[C@@H](O)[C@H](/C=C/[C@@H](O)C4CCCCC4)[C@H]3C2)c1` [Example 1e, 3EZ-(m-carboxybenzylidene)-6β-(3'S-hydroxy-3'-cyclohexyl-1'E-propenyl)-7α-hydroxy-cis-bicyclo[3.3.0]octane], the “EC200% (dose causing a threefold stimulation of the cAMP formation from ATP)” value in assay [5] stood at 0.15 µmol/L. In addition, the IC50 with human thrombocytes stood at 80 nM. Also, the relative activity was found to be 0.098 in the assay with human thrombocytes, 1.0 in the assay with narcotized rats [6] and 0.068 in assay [7]. In addition, the ED (20 mm Hg) in assay [7] (setting [9]) was 0.073 mg/kg.

`O=C(O)c1cccc(C=C2CC3CC(O)C(C=CC(O)C45CC6CC(CC(C6)C4)C5)C3C2)c1` (stereo not drawn) [Example 3e, 3EZ-(m-Carboxybenzylidene)-6β-[3'S-hydroxy-3'-(1"-adamantyl)-1'E-propenyl]-7α-hydroxy-cis-bicyclo[3.3.0]octane]: the “EC200% (dose causing a threefold stimulation of the cAMP formation from ATP)” value in assay [5] worked out at 0.18 µmol/L. In addition, the ED (20 mm Hg) in [7] (setting [9]) was above 1 mg/kg. In assay [7], the relative activity is below 0.005.

With `CCCCCC(O)C=CC1C(O)CC2OC(CCCCC(=O)O)CC21` (centres unmarked) [5,6-Dihydroprostacyclin, 5,6-dihydroprostacyclin, reference compound], the “EC200% (dose causing a threefold stimulation of the cAMP formation from ATP)” value in assay [5] came to 15.0 µmol/L. For the same molecule, the relative activity in assay [5] (relative to 5,6-dihydroprostacyclin = 1.0, adenylate cyclase stimulation) was 1.0; with human thrombocytes it was 0.043; in the assay on narcotized rats [6] it was 1.0; in [7], 1.0. This molecule also came in with a concentration for half-maximal inhibition (IC50) in the assay on human thrombocytes of 180 nM. Besides, in assay [7] (setting [9]), the “ED20 (dose causing a drop of the diastolic blood pressure by 20 mm Hg)” value is listed as 0.005 mg/kg.

As for `O=C(O)c1cccc(/C=C2\C[C@H]3C[C@@H](O)[C@H](/C=C/[C@@H](O)C4CCCCC4)[C@H]3C2)c1` [Example 2, 3E-(m-Carboxybenzylidene)-6β-(3'S-hydroxy-3'-cyclohexyl-1'E-propenyl)-7α-hydroxy-cis-bicyclo[3.3.0]octane], the “EC200% (dose causing a threefold stimulation of the cAMP formation from ATP)” value in assay [5] was 0.13 µmol/L. Moreover, the “half time of b.p.l.a. (blood pressure lowering activity)” value in the assay with narcotized rats [2] is on record as 25.96 min. In the assay on narcotized rats [2], the “rate of decay of blood pressure lowering activity” value stood at 2.6 % per min. In addition, the “duration of action relative to prostacyclin” value in the assay with narcotized rats [2] (blood pressure lowering activity, from Table 5) is reported as “about 5 times”. The molecule further registered an IC50 in the assay on human thrombocytes of 70 nM. The relative activity was 0.11 with human thrombocytes, 1.0 in the assay on narcotized rats [6], 0.03 with narcotized rats [4] and 0.053 in assay [7]. For the same molecule, the “% inhibition of platelet aggregation” value in the assay with narcotized rats [8] (30 min after oral 4.64 mg/kg) is reported as 38%; in the assay on narcotized rats [8] (60 min after oral 4.64 mg/kg), 26%; with narcotized rats [8] (150 min after oral 4.64 mg/kg), 22%. The “duration of strong thrombocyte aggregation inhibition” value with narcotized rats [8] (oral administration) is “at least 2.5 hours”. The values for the ED (20 mm Hg) (in the assay on narcotized rats [4]; in assay [7] (setting [9])) were 5.39 mg/kg and 0.094 mg/kg, respectively.

Take `CCCCC[C@H](O)/C=C/[C@@H]1[C@H]2CC(=Cc3cccc(C(=O)O)c3)C[C@H]2C[C@H]1O` [Compound A, 3-(m-carboxybenzylidene)-6-beta-(3'S-hydroxy-1'E-octenyl)-7-alpha-hydroxy- cis-bicyclo[3.3.0]octane, reference compound]: the “EC200% (dose causing a threefold stimulation of the cAMP formation from ATP)” value in assay [5] is 0.4 µmol/L. This molecule came in with a 50% inhibitory concentration (IC50) in the assay with human thrombocytes of 120 nM. In addition, the relative activity with human thrombocytes came out at 0.065; in the assay on narcotized rats [6], 0.1; in [7] it was 0.003. Besides, the ED (20 mm Hg) in [7] (setting [9]) came out at 1.9 mg/kg.
